What is called IC50 is the concentration that gives 50% inhibition.

We go through 4 compounds from US20220347180A1, “ENHANCING CANCER THERAPY TREATMENT WITH BH3 MIMETICS” (THE REGENTS OF THE UNIVERSITY OF COLORADO, A BODY CORPORATE, priority 2019, published 2022).

One data set deals with MB3447 melanoma line. The experiment in a line: ATP viability assay (Cell Titer-Glo). Particulars: Homo sapiens; MB3447, Triple WT, 48 h. Type of data set: cell-based. On the procedure:
(§1) Cells were treated for 48 h for viability assays and primary sphere assays.
(§2) ATP viability assay, primary and secondary sphere assays: Cell viability was evaluated via Cell Titer-Glo Luminescent cell viability assay (Promega Corp., Madison, Wis.) according to the manufacturer's protocol. All sphere assays were completed as previously described. The experimental schematic for the primary and secondary sphere assays was described previously. All assays were performed in no less than triplicate for each cell line and repeated at least three times for each line. Drug treatments began 120 h after seeding in the primary sphere assay and 24 h after seeding for the monolayer ATP assay.
(§3) Calculation of IC50 and Combination index (CI) values: IC50 values were calculated from the relative viability results of ATP assays, and were derived by a sigmoidal dose (log)-response (variable slope) curve with GraphPad Prism 8 software. […] This method uses a median-effect equation and Combination-index theorem to calculate synergy between two drugs and identifies the drug interaction as values […]. This is defined as combination-index values (CI values). The program requires entering a series of “dose (D) and effect (fa)” into the program for each drug alone as well as the combination therapy.
For orientation: ATP-based viability assays read luminescence as a measure of living cells.

The next data set concerns MB3616 melanoma line. Kind of data set: ATP viability assay (Cell Titer-Glo). The data set is classed as cell-based. The note with it: Homo sapiens; MB3616, NRAS Q61K, 48 h. Here is the method:
as §1, §2, §3

Another data set has as its system MB1692 melanoma line. Kind of data set: ATP viability assay (Cell Titer-Glo). The data set is classed as cell-based. Particulars: Homo sapiens; MB1692, AGK-BRAF, 48 h. Here is the method:
as §1, §2, §3

In a further data set the test system is SKMEL-28 melanoma line. Kind of data set: ATP viability assay (Cell Titer-Glo). Type of data set: cell-based. Particulars: Homo sapiens, SK-MEL-28; SKMEL-28, BRAFV600E, 48 h. On the procedure:
as §1, §2, §3

The test system of another data set is MB4667 melanoma line. Kind of data set: ATP viability assay (Cell Titer-Glo). The data set is classed as cell-based. The note with it: Homo sapiens; MB4667, NRAS Q61R, acral, 48 h. Here is the method:
as §1, §2, §3

For another data set, the system named is MB2114 melanoma line. Kind of data set: ATP viability assay (Cell Titer-Glo). Type of data set: cell-based. Particulars: Homo sapiens; MB2114, BRAF V600E, 48 h. On the procedure:
as §1, §2, §3

For another data set, the system named is Hs852T melanoma line. The experiment in a line: ATP viability assay (Cell Titer-Glo). The note with it: Homo sapiens, WT for BRAF, 48 h. The data set is classed as cell-based. On the procedure: as §1, §2, §3
A further data set relates to A375 melanoma line. The experiment in a line: ATP viability assay (Cell Titer-Glo). Type of data set: cell-based. Particulars: Homo sapiens, A-375; A375, BRAFV600E, 48 h. On the procedure: as §1, §2, §3
A further data set relates to WM852c melanoma line. Kind of data set: ATP viability assay (Cell Titer-Glo). The data set is classed as cell-based. Particulars: Homo sapiens, NRAS, 48 h. Here is the method: as §1, §2, §3
Another data set relates to MB2141 melanoma line. The experiment in a line: ATP viability assay (Cell Titer-Glo). The data set is classed as cell-based. Particulars: Homo sapiens; MB2141, EML4-ALK, mucosal, 48 h. On the procedure: as §1, §2, §3
The subject of the next data set is MB3961 melanoma line. Kind of data set: ATP viability assay (Cell Titer-Glo). Type of data set: cell-based. The note with it: Homo sapiens; MB3961, NRAS Q61K, 48 h. Here is the method: as §1, §2, §3
Another data set deals with Hs294T melanoma line. Kind of data set: ATP viability assay (Cell Titer-Glo). The data set is classed as cell-based. The note with it: Homo sapiens, Hs 294T, WT for BRAF/NRAS, 48 h. On the procedure: as §1, §2, §3
The next data set concerns 1205Lu melanoma line. The experiment in a line: ATP viability assay (Cell Titer-Glo). Type of data set: cell-based. Particulars: Homo sapiens, BRAFV600E, 48 h. On the procedure: as §1, §2, §3
For another data set, the system named is MB2724 melanoma line. The experiment in a line: ATP viability assay (Cell Titer-Glo). The data set is classed as cell-based. Particulars: Homo sapiens; MB2724, Triple WT, acral, 48 h. On the procedure:
as §1, §2, §3

The next data set has as its system MB3429 melanoma line. The experiment in a line: ATP viability assay (Cell Titer-Glo). The data set is classed as cell-based. The note with it: Homo sapiens, 48 h. Here is the method: as §1, §2, §3
Data set [1] deals with regulatory T cells (Tregs). The note with it: cited from earlier work.
For another data set, the system named is MP41. Particulars: MP41 uveal melanoma xenograft. Here is the method:
A uveal melanoma cell line, MP41, was used in the xenograft study, and tumor volume Panel (a) and weight of the mice Panel (b) were measured.
The viability of the DMSO control for each cell line was set to 100%. Panel (c) A uveal melanoma line, MP41, was used in the xenograft study, and tumor volume and weight of the mice were measured.
Drug treatments started when the tumors were palpable. Treatment groups consisted of randomly divided mice of at least 8 tumors each group. All drugs were prepared according to the manufacturer's protocol, or previously described. S63845 was administered at 25 mg/kg twice weekly. […] The tumor samples were collected at the end of the experiment for further studies.

The subject of another data set is A375 cells. The experiment in a line: Viability of A375 cells with BCL2 or MCL1 knockdown. The data set is classed as cell-based, human. The note with it: A375, 48 h. An excerpt: (a and b) Comparison between two genotypic groups: BRAF-hotspot mutated (MUT) (n=110) and BRAF-WT (WT) (harboring RAS hotspot mutated, any NF1 mutated, and triple wild type n=122). Panel (a) mRNA expression values for BCL2, CASP8, PDCD4, and MCL1. Panel (b) Relative RPPA protein expression values for PDCD4, CASP8, and BCL2. MCL1 was not included on the RPPA panel. Each dot represents an individual sample, and the horizontal line represents the mean. Panels (c) and (d) show the effects of BCL2 or MCL1 knockdown in A375 cells. Cells were treated with the indicated drugs for 48 h. […] Error bars represent +/−SEM.
Creation of short hairpin RNA transduced cell lines and CRISPR/Cas9-mediated BIM knockout cell lines: ShRNA lentiviral particles (Santa Cruz Biotechnology, Dallas, Tex.) were used to construct stable cell lines as previously described. BIM-knockout lines were generated using CRISPR/Cas9 technology, as previously described.

The subject of another data set is human melanoma lines. The experiment in a line: ATP viability assay, panel of melanoma lines. Particulars: single drug, up to 2.5 uM, 48 h. The data set is classed as cell-based. On the procedure: as §1, §2, §3
Data set [2] deals with tumor-infiltrating immune cells. The experiment in a line: Flow cytometry of tumor-infiltrating immune cells, B16 syngeneic model. The data set is classed as in vivo, mouse. The note with it: 40 mg/kg, day 10 post tumor implantation. Here is the method: (§4) 2.0×10^5 B16F10 melanoma cells were injected in the flanks of 7-week-old C57BL/6J mice on day 0. MCL1 inhibitors was administered retro-orbitally daily at 40 mg/kg, starting at day 6 post tumor implantation. […] Flow cytometry of tumor-infiltrating immune cells of Veh (vehicle control) and 40 mg/kg MCL1 inhibitor S63845 treated tumors at day 10 post tumor implantation. […] Similar experiments as in a, except with i.p injection. […] 2.0×10^5 B16F10 melanoma cells were injected in the flanks of 7-week-old C57BL/6J mice. MCL1-i was administered through retro-orbital injection daily at 40 mg/kg on days 5-9, and anti-PD1 was injected intraperitoneally at 250 ug on days 7, 11, 14 and 16.
(§5) Tumor volume was measured every 2 days with digital calipers. The following formula was used to calculate tumor volume: tumor volume (mm3)=(length in mm×width in mm2)/2.
A general note: In flow cytometry, cells or beads pass a laser one at a time.

The next data set concerns B16F10 melanoma cells. The data set is classed as in vivo. Particulars: retro-orbitally daily at 40 mg/kg from day 6 post implantation. Here is the method:
as §4, §5
Tumor volume was measured every 2 days with digital calipers.

The conditions of data set [3]: higher doses and more frequently than in the current study; cited from earlier work.

“Also recorded” adds a separate entry of the source. Where two headings read alike, the source gives them in different places.

Turning to `CC1(C)CCC(CN2CCN(c3ccc(C(=O)NS(=O)(=O)c4ccc(NCC5CCOCC5)c([N+](=O)[O-])c4)c(Oc4cnc5[nH]ccc5c4)c3)CC2)=C(c2ccc(Cl)cc2)C1` [ABT-199, venetoclax], the IC50 was more than 10 µM in the data set on MB3447 melanoma line; 9.69 µM with MB3616 melanoma line; more than 10 µM in the data set on MB1692 melanoma line; more than 10 µM in the data set on SKMEL-28 melanoma line; 7.69 µM in the data set with MB4667 melanoma line; more than 10 µM in the data set with MB2114 melanoma line. Besides, the IC50 in the data set with Hs852T melanoma line is 8.8 µM; in the data set with A375 melanoma line, more than 10 µM; in the data set with WM852c melanoma line it was more than 10 µM; in the data set on MB2141 melanoma line, more than 10 µM; in the data set with MB3961 melanoma line, more than 10 µM; in the data set on Hs294T melanoma line, more than 10 µM. In addition, the IC50 is more than 10 µM in the data set on 1205Lu melanoma line; more than 10 µM with MB2724 melanoma line; 3.91 µM in the data set on MB3429 melanoma line (MB3429, BRAF G596C, GNA11 R183C, read-out: IC50).
Consider `COC1=CC(c2cc3ccccc3[nH]2)=N/C1=C\c1[nH]c(C)cc1C` [GX15-070], for which the “cell death of regulatory T cells” value in data set [1] is listed as “preferentially induces cell death”.
On to `Cc1c(-c2c(-c3ccc(F)o3)sc3ncnc(O[C@H](Cc4ccccc4OCc4ccnn4CC(F)(F)F)C(=O)O)c23)ccc(OCCN2CCN(C)CC2)c1Cl` [S63845], for which the mouse weight result with MP41 is on record as “without affecting mouse weight”. For the same compound, the “tumor growth (tumor volume)” value with MP41 is recorded as “significantly inhibited uveal melanoma tumor growth”. Besides, the “sensitivity after BCL2 knockdown (shBCL2)” value in the data set with A375 cells was “sensitized cells”. The “effect on cell viability” value in the data set on human melanoma lines is “little effect on cell viability”. In data set [2], the “frequency of MDSCs in tumors” value is reported as “drastically decreased”. Also, in [2], the “frequency of tumor-infiltrating CD8+ T cells” value is listed as “increased”. Moreover, the IC50 is 5.49 µM with MB3447 melanoma line; 8.11 µM in the data set with MB3616 melanoma line; 7.42 µM in the data set with MB1692 melanoma line; 4 µM with SKMEL-28 melanoma line; more than 10 µM in the data set on MB4667 melanoma line; more than 10 µM in the data set with MB2114 melanoma line. Also, the IC50 is 6.14 µM in the data set with Hs852T melanoma line; 6.33 µM with A375 melanoma line; 7.81 µM with WM852c melanoma line; 2.67 µM in the data set on MB2141 melanoma line; 2.91 µM in the data set on MB3961 melanoma line; 2.9 µM in the data set with Hs294T melanoma line. The IC50 with 1205Lu melanoma line was 7.2 µM; in the data set with MB2724 melanoma line, 3.24 µM; with MB3429 melanoma line, 8.85 µM. In addition, the tumor growth entry with B16F10 melanoma cells is recorded as “blocked tumor growth; also recorded: inhibited tumor growth curve”.
As for `Cc1c2c(nn1C)CSCc1cc(n(C)n1)CSc1cc(c3ccccc3c1)OCCCc1c(C(=O)O)n(C)c3c-2c(Cl)ccc13` [AZD5991], the toxicity entry in [3] was “Minimal toxicity”.
